Test: Mouse PK Study
Type: in vivo
Conditions: plasma, male CD-1 mouse
Protocol: Biological Example: Mouse PK Study
The pharmacokinetics of compounds were evaluated in male CD-1 mouse via Intravenous (dose of 1 mg/kg) and Oral Administration (dose of 10 mg/kg). For intravenous administration study, test compounds were dissolved in DMSO/EtOH/Cremophor EL/D5W (2.5/10/20/67.5, by volume) and injected with a 1 mg/kg dose via tail vein. For oral administration study, test compounds were dissolved in PEG400/Phosal 50 PG/EtOH (30/60/10, by volume) and administrated to mice at 10 mg/kg by gavage. Blood was collected into EDTA-K2 anticoagulant tube at 5 (IV only). 15, and 30 min and 1, 2, 4, 8 and 24 h after administration. Approximately 30 μL blood was collected at each time point. And then the blood was centrifuged at 3000 g for 5 min at 4° C. using a centrifuge to obtain the plasma. The plasma sample was transferred into a tube and stored in a freezer at approximately −20° C. until the determination of concentration by LC-MS/MS. Pharmacokinetic parameter were estimated by using WinNonlin software (version 8.1, Pharsight Corporation, CA, USA) with non-compartmental method. The following pharmacokinetic parameters were calculated, whenever possible from the plasma concentration-time data: CL, Vd, T1/2, AUClast, AUCinf for IV administration and Tmax, Cmax, AUClast, AUCinf, T1/2 for PO administration. All animals are free fed before experiment. For comparison purpose, the PK results of certain compounds in previous disclosure were obtained using the same methods.

Row | SMILES | AUC(0-t) (Iv dosing (1 mg/kg)) | Vd (Iv dosing (1 mg/kg)) | clearance (Iv dosing (1 mg/kg)) | AUC(0-t) (Po dosing (10 mg/kg)) | Cmax (Po dosing (10 mg/kg))
1 | COc1ccc(CN2CCN(C3CC4(CCN(c5ccc(C(=O)NS(=O)(=O)c6ccc(NCC7(F)CCOCC7)c([N+](=O)[O-])c6)c(Oc6cnc7[nH]ccc7c6)c5)CC4)C3)[C@H](c3ccccc3C(C)C)C2)cc1 (single isomer, unassigned) [Example 32, (R or S)-2-((1H-pyrrolo[2,3-b]pyridin-5-yl)oxy)-N-((4-(((4-fluorotetrahydro-2H-pyran-4-yl)methyl)amino)-3-nitrophenyl)sulfonyl)-4-(2-(2-(2-isopropylphenyl)-4-(4-methoxybenzyl)piperazin-1-yl)-7-azaspiro[3.5]nonan-7-yl)benzamide] | 10500 ng·h/mL | 0.48 L/kg | 1.5 mL/min/kg | 21200 ng·h/mL | 1440 ng/mL
2 | CC(C)c1ccccc1[C@@H]1CN(Cc2ccc(F)c(F)c2)CCN1C1CC2(CCN(c3ccc(C(=O)NS(=O)(=O)c4ccc(NC[C@H]5CC[C@](C)(O)CC5)c([N+](=O)[O-])c4)c(Oc4cnc5[nH]ccc5c4)c3)CC2)C1 (single isomer, unassigned) [Example 52a, 2-((1H-pyrrolo[2,3-b]pyridin-5-yl)oxy)-4-(2-((R or S)-4-(3,4-difluorobenzyl)-2-(2-isopropylphenyl)piperazin-1-yl)-7-azaspiro[3.5]nonan-7-yl)-N-((4-((((1r,4r)-4-hydroxy-4-methylcyclohexyl)methyl)amino)-3-nitrophenyl)sulfonyl)benzamide] | 6510 ng·h/mL | 0.62 L/kg | 2.6 mL/min/kg | 20700 ng·h/mL | 2140 ng/mL
3 | COc1ccc(CN2CCN(C3CC4(CCN(c5ccc(C(=O)NS(=O)(=O)c6ccc(NC[C@H]7CC[C@](C)(O)CC7)c([N+](=O)[O-])c6)c(Oc6cnc7[nH]ccc7c6)c5)CC4)C3)[C@H](c3ccccc3C(C)C)C2)cc1 [Example 19a, 2-((1H-pyrrolo[2,3-b]pyridin-5-yl)oxy)-N-((4-((((1r,4r)-4-hydroxy-4-methylcyclohexyl)methyl)amino)-3-nitrophenyl)sulfonyl)-4-(2-((R)-2-(2-isopropylphenyl)-4-(4-methoxybenzyl)piperazin-1-yl)-7-azaspiro[3.5]nonan-7-yl)benzamide] | 12300 ng·h/mL | 0.48 L/kg | 1.4 mL/min/kg | 20000 ng·h/mL | 1590 ng/mL
4 | COc1cc(CN2CCN(C3CC4(C3)CN(c3ccc(C(=O)NS(=O)(=O)c5ccc(NC[C@H]6CC[C@](C)(O)CC6)c([N+](=O)[O-])c5)c(Oc5cnc6[nH]cc(F)c6c5)c3)C4)[C@H](c3ccccc3C(C)C)C2)ccc1C1CC1 [Example 232, 4-(6-((R)-4-(4-cyclopropyl-3-methoxybenzyl)-2-(2-isopropylphenyl)piperazin-1-yl)-2-azaspiro[3.3]heptan-2-yl)-2-((3-fluoro-1H-pyrrolo[2,3-b]pyridin-5-yl)oxy)-N-((4-((((1r,4r)-4-hydroxy-4-methylcyclohexyl)methyl)amino)-3-nitrophenyl)sulfonyl)benzamide] | 14400 ng·h/mL | 1.2 L/kg | 1.2 mL/min/kg | 18300 ng·h/mL | 1090 ng/mL
5 | COc1cc(CN2CCN(C3CC4(C3)CN(c3ccc(C(=O)NS(=O)(=O)c5ccc(NC[C@H]6CC[C@](C)(O)CC6)c([N+](=O)[O-])c5)c(Oc5cnc6[nH]ccc6c5)c3)C4)[C@H](c3ccccc3C(C)C)C2)ccc1C1CC1 [Example 233, 2-((1H-pyrrolo[2,3-b]pyridin-5-yl)oxy)-4-(6-((R)-4-(4-cyclopropyl-3-methoxybenzyl)-2-(2-isopropylphenyl)piperazin-1-yl)-2-azaspiro[3.3]heptan-2-yl)-N-((4-((((1r,4r)-4-hydroxy-4-methylcyclohexyl)methyl)amino)-3-nitrophenyl)sulfonyl)benzamide] | 17200 ng·h/mL | 0.8 L/kg | 1 mL/min/kg | 17400 ng·h/mL | 1100 ng/mL
6 | COc1cc(CN2CCN(C3CC4(C3)CN(c3ccc(C(=O)NS(=O)(=O)c5ccc(NC[C@H]6CC[C@](C)(O)CC6)c([N+](=O)[O-])c5)c(Oc5cnc6[nH]cc(F)c6c5)c3)C4)[C@H](c3ccccc3C(C)C)C2)cc2cc(C)oc12 [Example 338, 2-((3-fluoro-1H-pyrrolo[2,3-b]pyridin-5-yl)oxy)-N-((4-((((1r,4r)-4-hydroxy-4-methylcyclohexyl)methyl)amino)-3-nitrophenyl)sulfonyl)-4-(6-((R)-2-(2-isopropylphenyl)-4-((7-methoxy-2-methylbenzofuran-5-yl)methyl)piperazin-1-yl)-2-azaspiro[3.3]heptan-2-yl)benzamide] | 42900 ng·h/mL | 0.37 L/kg | 0.4 mL/min/kg | 11600 ng·h/mL | 699 ng/mL

Reference: US20240376097A1, “BCL-2 Inhibitor” (BeiGene Ltd., priority 2020, published 2024)
